Assay results published in PMC10743905, “Design, Synthesis, and In Vitro and In Vivo Bioactivity Studies of Hydrazide–Hydrazones of 2,4-Dihydroxybenzoic Acid” (International Journal of Molecular Sciences, 2023).
In brackets after ≈: the same amount, converted by molar mass.

test system: Candida krusei ATCC 14243; test: Broth microdilution MIC/MFC; assay type: cell-based; conditions: Pichia kudriavzevii, ATCC14243, read-out: MIC
Excerpt: (§1) In vitro antimicrobial activity assays - Methodology
(§2) The examined compounds 1 - 24 were screened in vitro for antibacterial and antifungal activities using the broth microdilution method according to procedure reported earlier by our research group and European Committee on Antimicrobial Susceptibility Testing (EUCAST) and Clinical and Laboratory Standards Institute (CLSI) guidelines against a panel of reference and clinical or saprophytic strains of microorganisms, in-cluding Gram-positive bacteria, Staphylococcus aureus ATCC 43300 (Methicillin Resistant S. aureus – MRSA), Staphylococcus aureus ATCC 29213 (Methicillin Susceptible S. aureus – MSSA), Staphylococcus epidermidis ATCC 12228, Enterococcus faecalis ATCC 29212, Micro-coccus luteus ATCC 10240, Bacillus subtilis ATCC 6633 and Bacillus cereus ATCC 10876), Gram-negative bacteria (Bordetella bronchiseptica ATCC 4617, Escherichia coli ATCC 25922, Klebsiella pneumoniae ATCC 13883, Proteus mirabilis ATCC 12453, Salmonella typhimurium ATCC 14028 and Pseudomonas aeruginosa ATCC 9027) and fungi belonging to yeasts (Can-dida albicans ATCC 10231, Candida albicans ATCC 2091, Candida parapsilosis ATCC 22019, Candida glabrata ATCC 90030 and Candida krusei ATCC 14243). The microorganisms be-longing to ATCC came from American Type Culture Collection, routinely used for the evaluation of antimicrobials. All the used microbial cultures were first subcultured on nu-trient agar or Sabouraud agar at 35°C for 18-24 h or 30°C for 24-48 h for bacteria and fungi, […]
(§3) The surface of Mueller-Hinton agar (for bacteria) and RPMI 1640 with MOPS (for fungi) were inoculated with the suspensions of bacterial or fungal species. Microbial suspensions were prepared in sterile saline with an optical density of McFarland standard scale 0.5.
(§4) Samples containing examined compounds were dissolved in dimethyl sulfoxide (DMSO).
(§5) Furthermore, bacterial and fungal suspensions were put onto Petri dishes with solid me-dia containing 2 mg/mL of the tested compounds followed incubation at 37°C for 24h and 30°C for 48h for bacteria and fungi, respectively. The inhibition of microbial growth was judged by comparison with a control culture prepared without any sample tested. Ciprof-loxacin, vancomycin, nitrofurantoin, cefuroxime, ampicillin or nystatin (Sigma) were used as a reference antibacterial or antifungal compounds, respectively.
(§6) Subsequently, the MIC (Minimal Inhibitory Concentration) of the compounds was ex-amined by the microdilution broth method, using their two-fold dilutions in Mueller- […]
(§7) Hinton broth or (for bacteria) and RPMI 1640 broth with MOPS (for fungi) prepared in 96-well polystyrene plates. Final concentrations of the compounds ranged from 1000 to 0.488 µg/ml. Microbial suspensions were prepared in 0.85% NaCl with an optical density of 0.5 McFarland standard. Next each bacterial or fungal suspension was added per each well containing broth and various concentrations of the examined compounds. After incuba-

MIC | SMILES
> 1000 µg/mL | COc1cc(/C=N/NC(=O)c2ccc(O)cc2O)cc(I)c1O [Compound 16, 2,4-dihydroxy-N-[(4-hydroxy-3-iodo-5-methoxyphenyl)methylidene]benzohydrazide]

test system: Candida albicans ATCC 2091; test: Broth microdilution MIC/MFC; assay type: cell-based; conditions: not given
Excerpt: as §1, §2, §3, §4, §5, §6, §7

MFC/MIC | SMILES
> 4 | COc1cc(/C=N/NC(=O)c2ccc(O)cc2O)cc(I)c1O [Compound 16, 2,4-dihydroxy-N-[(4-hydroxy-3-iodo-5-methoxyphenyl)methylidene]benzohydrazide]

same assay, conditions: ATCC2091, read-out: MFC

SMILES | MFC
COc1cc(/C=N/NC(=O)c2ccc(O)cc2O)cc(I)c1O [Compound 16, 2,4-dihydroxy-N-[(4-hydroxy-3-iodo-5-methoxyphenyl)methylidene]benzohydrazide] | > 1000 µg/mL

same assay, conditions: ATCC2091, read-out: MIC

MIC | SMILES
250 µg/mL (≈ 584 µM) | COc1cc(/C=N/NC(=O)c2ccc(O)cc2O)cc(I)c1O [Compound 16, 2,4-dihydroxy-N-[(4-hydroxy-3-iodo-5-methoxyphenyl)methylidene]benzohydrazide]

test system: Candida parapsilosis ATCC 22019; test: Broth microdilution MIC/MFC; assay type: cell-based; conditions: Lodderomyces parapsilosis, ATCC22019, read-out: MIC
Excerpt: as §1, §2, §3, §4, §5, §6, §7

MIC | SMILES
> 1000 µg/mL | COc1cc(/C=N/NC(=O)c2ccc(O)cc2O)cc(I)c1O [Compound 16, 2,4-dihydroxy-N-[(4-hydroxy-3-iodo-5-methoxyphenyl)methylidene]benzohydrazide]

test system: Candida albicans ATCC 10231; test: Broth microdilution MIC/MFC; assay type: cell-based; conditions: not given
Excerpt: as §1, §2, §3, §4, §5, §6, §7

MFC/MIC | SMILES
> 1 | COc1cc(/C=N/NC(=O)c2ccc(O)cc2O)cc(I)c1O [Compound 16, 2,4-dihydroxy-N-[(4-hydroxy-3-iodo-5-methoxyphenyl)methylidene]benzohydrazide]

same assay, conditions: ATCC10231, read-out: MFC

SMILES | MFC
COc1cc(/C=N/NC(=O)c2ccc(O)cc2O)cc(I)c1O [Compound 16, 2,4-dihydroxy-N-[(4-hydroxy-3-iodo-5-methoxyphenyl)methylidene]benzohydrazide] | > 1000 µg/mL

same assay, conditions: ATCC10231, read-out: MIC

MIC | SMILES
1000 µg/mL (≈ 2340 µM) | COc1cc(/C=N/NC(=O)c2ccc(O)cc2O)cc(I)c1O [Compound 16, 2,4-dihydroxy-N-[(4-hydroxy-3-iodo-5-methoxyphenyl)methylidene]benzohydrazide]

test system: Candida glabrata ATCC 90030; test: Broth microdilution MIC/MFC; assay type: cell-based; conditions: Nakaseomyces glabratus, ATCC90030, read-out: MIC
Excerpt: as §1, §2, §3, §4, §5, §6, §7

MIC | SMILES
> 1000 µg/mL | COc1cc(/C=N/NC(=O)c2ccc(O)cc2O)cc(I)c1O [Compound 16, 2,4-dihydroxy-N-[(4-hydroxy-3-iodo-5-methoxyphenyl)methylidene]benzohydrazide]

test system: not given; test: not given; conditions: not given

melting point | SMILES
255 °C | COc1cc(/C=N/NC(=O)c2ccc(O)cc2O)cc(I)c1O [Compound 16, 2,4-dihydroxy-N-[(4-hydroxy-3-iodo-5-methoxyphenyl)methylidene]benzohydrazide]

test system: Bordetella bronchiseptica ATCC 4617; test: Broth microdilution MIC/MBC; assay type: cell-based; conditions: ATCC4617
Excerpt: as §1, §2, §3, §4, §5, §6, §7

MIC | SMILES
> 1000 µg/mL | COc1cc(/C=N/NC(=O)c2ccc(O)cc2O)cc(I)c1O [Compound 16, 2,4-dihydroxy-N-[(4-hydroxy-3-iodo-5-methoxyphenyl)methylidene]benzohydrazide]

test system: Escherichia coli ATCC 25922; test: Broth microdilution MIC/MBC; assay type: cell-based; conditions: ATCC25922
Excerpt: as §1, §2, §3, §4, §5, §6, §7

MIC | SMILES
> 1000 µg/mL | COc1cc(/C=N/NC(=O)c2ccc(O)cc2O)cc(I)c1O [Compound 16, 2,4-dihydroxy-N-[(4-hydroxy-3-iodo-5-methoxyphenyl)methylidene]benzohydrazide]

test system: Enterococcus faecalis ATCC 29212; test: Broth microdilution MIC/MBC; assay type: cell-based; conditions: not given
Excerpt: as §1, §2, §3, §4, §5, §6, §7

MBC/MIC | SMILES
> 1 | COc1cc(/C=N/NC(=O)c2ccc(O)cc2O)cc(I)c1O [Compound 16, 2,4-dihydroxy-N-[(4-hydroxy-3-iodo-5-methoxyphenyl)methylidene]benzohydrazide]

same assay, conditions: ATCC29212, read-out: MBC

SMILES | MBC
COc1cc(/C=N/NC(=O)c2ccc(O)cc2O)cc(I)c1O [Compound 16, 2,4-dihydroxy-N-[(4-hydroxy-3-iodo-5-methoxyphenyl)methylidene]benzohydrazide] | > 1000 µg/mL

same assay, conditions: ATCC29212, read-out: MIC

MIC | SMILES
1000 µg/mL (≈ 2340 µM) | COc1cc(/C=N/NC(=O)c2ccc(O)cc2O)cc(I)c1O [Compound 16, 2,4-dihydroxy-N-[(4-hydroxy-3-iodo-5-methoxyphenyl)methylidene]benzohydrazide]

test system: Bacillus cereus ATCC 10876; test: Broth microdilution MIC/MBC; assay type: cell-based; conditions: not given
Excerpt: as §1, §2, §3, §4, §5, §6, §7

MBC/MIC | SMILES
> 1 | COc1cc(/C=N/NC(=O)c2ccc(O)cc2O)cc(I)c1O [Compound 16, 2,4-dihydroxy-N-[(4-hydroxy-3-iodo-5-methoxyphenyl)methylidene]benzohydrazide]

same assay, conditions: ATCC10876

SMILES | MBC
COc1cc(/C=N/NC(=O)c2ccc(O)cc2O)cc(I)c1O [Compound 16, 2,4-dihydroxy-N-[(4-hydroxy-3-iodo-5-methoxyphenyl)methylidene]benzohydrazide] | > 1000 µg/mL
